# Read-outs that look alike come from different tables or passages of the source. Marks after values point to notes of the source that are not given here. Ends that are not written are not given here.
# Experiments:
# [1] = tested on: human chronic myeloid leukemia cells K562; assay type: cell-based; conditions: 72 h
# Protocol: (§1) Human pancreatic cancer, hepatocellular carcinoma, colorectal cancer, ovarian cancer, cervical cancer, bladder cancer, melanoma, glioblastoma, neuroblastoma, glioma, osteosarcoma, myeloma, lymphoma, hematologic malignancies, and cholangiocarcinoma cells were cultured in an incubator at 37° C. with 5% CO2 until the density reached 90%, then digested and collected with trypsin, resuspended in a culture medium, and counted under a microscope; the cell concentration was adjusted to about 1.0×10^5 cells/mL; and the cell suspension was inoculated into a 96-well plate, with 100 μL per well, and incubated overnight in an incubator at 37° C. with 5% CO2. After the cells were completely attached to the wall, 100 μL of micropeptides MIAC with concentrations of 50 μM, 100 μM and 200 μM were added to form an administration group; and a culture medium without any medicament was used as a negative control group. After continuing incubation for 72 h, 100 μL of CCK8 was added to each well of the 96-well plate for dissolving. The absorbance OD was measured at a detection wavelength of 450 nm with a microplate reader, and the proliferation inhibition (PI) was calculated using the formula of PI (%)=1-administration group/negative control group. The experiment was repeated 3 times independently, the results were expressed as Mean±SD, and a statistical T test was performed, where *P<0.05 indicated a significant difference and **P<0.01 indicated an extremely significant difference.
# [2] = tested on: human myeloid leukemia cells HL60; assay type: cell-based; conditions: 72 h
# Protocol: as §1
# [3] = tested on: human neuroblastoma cells SH-SY5Y; assay type: cell-based; conditions: 72 h
# Protocol: as §1
# [4] = tested on: human ovarian cancer cells SKOV3; assay type: cell-based; conditions: 72 h
# Protocol: as §1
# [5] = tested on: human esophageal carcinoma cells Eca-109; assay type: cell-based; conditions: 72 h
# [6] = tested on: human esophageal carcinoma cells CaES-17; assay type: cell-based; conditions: 72 h
# [7] = tested on: human gastric carcinoma cells BGC-803; assay type: cell-based; conditions: 72 h
# [8] = tested on: human gastric carcinoma cells BGC-823; assay type: cell-based; conditions: 72 h
# [9] = tested on: human breast cancer cells MDA-MB-231; assay type: cell-based; conditions: 72 h
# [10] = tested on: human breast cancer cells MCF-7; assay type: cell-based; conditions: 72 h
# [11] = tested on: human non-small cell lung cancer cells NCI-H1299; assay type: cell-based; conditions: 72 h
# [12] = tested on: human lung giant cell carcinoma cells 95-D; assay type: cell-based; conditions: 72 h
# [13] = tested on: prostate cancer Du145 cells; experiment: transwell migration inhibition, Du145; assay type: cell-based, human; conditions: 48 h
# Protocol: (§2) Human prostate cancer, cervical cancer, osteosarcoma, ovarian cancer, melanoma, and hepatocellular carcinoma cells were inoculated into transwell chambers, with 100 μL per well; for an administration group, 100 μL of a micropeptide MIAC was added to each of the chambers at a different dose; and no medicament was added to a blank group. Then, 0.6 mL of a complete medium comprising 10% FBS was added to transwell lower chambers to stimulate cell migration, followed by incubation at 37° C. with 5% CO2 for 48 h. The culture medium in the wells was discarded, and the cells were fixed with methanol at room temperature for 30 min, stained with 0.1% crystal violet at room temperature for 10 min, and rinsed thoroughly with clear water; the unmigrated cells in the upper layer were wiped off with a cotton swab; and the migrated cells were observed under a microscope, and four visual fields were selected for photography and counting. The migration inhibition rate (MI) was calculated using the following formula: […]
# (§3) where Ntest represents the number of migrated cells in the administration group, and Ncontrol represents the number of migrated cells in the blank control group.
# osteosarcoma MG-63 cells = experiment: transwell migration inhibition, MG-63; assay type: cell-based, human; conditions: 48 h
# Protocol: as §2, §3
# [14] = tested on: ovarian cancer SKOV3 cells; experiment: transwell migration inhibition, SKOV3; assay type: cell-based, human; conditions: 48 h
# Protocol: as §2, §3
# [15] = tested on: malignant melanoma A375 cells; experiment: transwell migration inhibition, A375; assay type: cell-based, human; conditions: 48 h
# Protocol: as §2, §3
sequence,measurement,setting,value
"MERAGVPGFSPRRSSVEAKMQSTSCSVRKSSTVTAWPAVVLLLSWGQRRGG [MIAC, micropeptide inhibiting actin cytoskeleton]",OD,"[1]; K562, 50 μM",1.004 ± 0.012**
same,OD,"[1]; K562, 100 μM",0.544 ± 0.062**
same,OD,"[1]; K562, 200 μM",0.338 ± 0.025**
same,OD,"[2]; HL60, 50 μM",1.378 ± 0.029**
same,OD,"[2]; HL60, 100 μM",0.725 ± 0.027**
same,OD,"[2]; HL60, 200 μM",0.549 ± 0.023**
same,OD,[3]; 50 μM,1.033 ± 0.022
same,OD,[3]; 100 μM,0.822 ± 0.108**
same,OD,[3]; 200 μM,0.665 ± 0.011**
same,OD,"[4]; SKOV3, 50 μM",1.244 ± 0.282**
same,OD,"[4]; SKOV3, 100 μM",0.843 ± 0.049**
same,OD,"[4]; SKOV3, 200 μM",0.727 ± 0.038**
same,OD,"[5]; Eca-109, 50 μM",1.072 ± 0.037
same,OD,"[5]; Eca-109, 100 μM",0.656 ± 0.045
same,OD,"[5]; Eca-109, 200 μM",0.394 ± 0.039
same,OD,"[6]; CaES-17, 50 μM",1.168 ± 0.044
same,OD,"[6]; CaES-17, 100 μM",0.672 ± 0.051
same,OD,"[6]; CaES-17, 200 μM",0.466 ± 0.022
same,OD,"[7]; BGC-803, 50 μM",1.379 ± 0.025
same,OD,"[7]; BGC-803, 100 μM",0.960 ± 0.059
same,OD,"[7]; BGC-803, 200 μM",0.715 ± 0.015
same,OD,"[8]; BGC-823, 50 μM",0.950 ± 0.045
same,OD,"[8]; BGC-823, 100 μM",0.556 ± 0.029
same,OD,"[8]; BGC-823, 200 μM",0.327 ± 0.025
same,OD,"[9]; MDA-MB-231, 50 μM",0.777 ± 0.050
same,OD,"[9]; MDA-MB-231, 100 μM",0.378 ± 0.058
same,OD,"[9]; MDA-MB-231, 200 μM",0.206 ± 0.016
same,OD,"[10]; MCF-7, 50 μM",1.281 ± 0.040
same,OD,"[10]; MCF-7, 100 μM",0.973 ± 0.027
same,OD,"[10]; MCF-7, 200 μM",0.814 ± 0.047
same,OD,"[11]; NCI-H1299, 50 μM",1.090 ± 0.022
same,OD,"[11]; NCI-H1299, 100 μM",0.754 ± 0.06
same,OD,"[11]; NCI-H1299, 200 μM",0.467 ± 0.012
same,OD,[12]; 50 μM,1.188 ± 0.022
same,OD,[12]; 100 μM,0.863 ± 0.054
same,OD,[12]; 200 μM,0.341 ± 0.010
same,Inhibition rate (%),"[13]; Du145, 3.125 μmol/L",39.23%
same,Number of migrated cells,"[13]; Du145, 3.125 μmol/L",349.3 ± 98.5
same,Inhibition rate (%),"[13]; Du145, 6.25 μmol/L",69.77%
same,Number of migrated cells,"[13]; Du145, 6.25 μmol/L",173.8 ± 48.8
same,Inhibition rate (%),"[13]; Du145, 12.5 μmol/L",82.51%
same,Number of migrated cells,"[13]; Du145, 12.5 μmol/L",100.5 ± 11.8
same,Inhibition rate (%),"[13]; Du145, 25 μmol/L",91.87%
same,Number of migrated cells,"[13]; Du145, 25 μmol/L",46.8 ± 8.5
same,Inhibition rate (%),"[13]; Du145, 50 μmol/L",94.56%
same,Number of migrated cells,"[13]; Du145, 50 μmol/L",31.3 ± 8.4
same,Inhibition rate (%),"osteosarcoma MG-63 cells; MG-63, 3.125 μmol/L",64.05%
same,Number of migrated cells,"osteosarcoma MG-63 cells; MG-63, 3.125 μmol/L",129.5 ± 19.9
same,Inhibition rate (%),"osteosarcoma MG-63 cells; MG-63, 6.25 μmol/L",83.21%
same,Number of migrated cells,"osteosarcoma MG-63 cells; MG-63, 6.25 μmol/L",60.5 ± 26.7
same,Inhibition rate (%),"osteosarcoma MG-63 cells; MG-63, 12.5 μmol/L",90.98%
same,Number of migrated cells,"osteosarcoma MG-63 cells; MG-63, 12.5 μmol/L",32.5 ± 6.0
same,Inhibition rate (%),"osteosarcoma MG-63 cells; MG-63, 25 μmol/L",93.13%
same,Number of migrated cells,"osteosarcoma MG-63 cells; MG-63, 25 μmol/L",24.8 ± 9.6
same,Inhibition rate (%),"[14]; SKOV3, 12.5 μmol/L",17.17%
same,Number of migrated cells,"[14]; SKOV3, 12.5 μmol/L",907.3 ± 46.5
same,Inhibition rate (%),"[14]; SKOV3, 25 μmol/L",52.28%
same,Number of migrated cells,"[14]; SKOV3, 25 μmol/L",523.8 ± 35.3
same,Inhibition rate (%),"[14]; SKOV3, 50 μmol/L",62.04%
same,Number of migrated cells,"[14]; SKOV3, 50 μmol/L",415.8 ± 21.7
same,Inhibition rate (%),"[15]; A375, 12.5 μmol/L",46.18%
same,Number of migrated cells,"[15]; A375, 12.5 μmol/L",139.3 ± 28.5
same,Inhibition rate (%),"[15]; A375, 25 μmol/L",36.52%
same,Number of migrated cells,"[15]; A375, 25 μmol/L",164.3 ± 40.1
same,Inhibition rate (%),"[15]; A375, 50 μmol/L",48.70%
same,Number of migrated cells,"[15]; A375, 50 μmol/L",132.8 ± 35.1

# Source: patent publication US20260166122A1, “USE OF MICROPEPTIDE MIAC” (NANJING ANJI BIOTECHNOLOGY CO., LTD, priority 2023, published 2026)
